Source: PMC10574351, “First-Row Transition Metal Complexes Incorporating the 2-(2′-pyridyl)quinoxaline Ligand (pqx), as Potent Inflammatory Mediators: Cytotoxic Properties and Biological Activities against the Platelet-Activating Factor (PAF) and Thrombin” (Molecules, 2023)
Entries after “also recorded” stand apart in the source; their conditions may differ. Where two headings read alike, the source gives them in different places.

How the values were obtained:
[1] = test system: PAF-induced aggregation in washed rabbit platelets (WRPs); test: Inhibition of PAF-induced aggregation in washed rabbit platelets; assay type: cell-based; conditions: washed rabbit platelets; mean ± SD; read-out: IC50 (μM) towards PAF in WRPs
Description: The biological experiments of PAF-induced platelet aggregation as well as the evaluation of the inhibitory effect of its synthetic compounds were performed according to thoroughly described protocols. […] Briefly, in order to obtain the washed rabbit platelets (WRPs), platelet-rich plasma was washed on Ficoll–Paque cushions and adjusted to […] platelets/mL of Tyrode’s buffer, pH 7.2. The dilution of PAF was prepared using pyrogen-free 0.15 M NaCl containing 2.5 mg/mL of crystallized bovine serum albumin, required for dispersion of PAF. The compounds under investigation were firstly dissolved in the appropriate solvent that is: DMSO for pqx (0.010 M), H2O for CrCl3 × 3H2O (0.016 M), H2O for MnCl2 × 4H2O (0.004 M), DMSO-EtOH (4/1, v/v)) for FeCl2 × 4H2O (0.014 M), H2O for CoCl2 × 6H2O (0.010 M), H2O for NiCl2 × 6H2O (0.010 M), H2O for CuCl2 × 2H2O (0.008 M), H2O for ZnCl2 (0.013 M), DMSO for 1 (0.017 M), DMSO for 2 (0.010 M0, DMSO for 3 (0.004 M), DMSO for 4 (0.002 M), DMSO for 5 (0.003 M), DMSO-EtOH-H2O (25/1/1, v/v)) for 6 (0.006 M), DMSO for 7 (0.002 M) and aliquots of these solutions were then added in solutions (2.5 mg BSA/mL) of saline.
The experiment on the inhibitory effect of each compound of interest against the washed rabbit platelets (WRPs) aggregation was carried out as per the already described method. The platelets were from male New Zealand white rabbits (about 20), individually housed in stainless steel cages in an air-conditioned room (19 ± 1 °C, 55 ± 5% humidity on a 12/12 h artificial light/dark cycle). Blood samples were drawn from the main ear artery. Microliters of PAF in a final concentration of about 10^–10 M were added to the cuvette of the aggregometer, and the height of the platelet aggregation was monitored. The platelet aggregation induced by PAF, or thrombin was measured before (considered as 0% inhibition) and after the addition of various concentrations of the examined sample, creating a linear curve of percentage inhibition (ranging from 0 to 100%) versus different concentrations of the sample. From this curve, the concentration of the sample that inhibited 50% PAF-induced aggregation was calculated, and this value was defined as IC50 (Inhibitory concentration for 50% Inhibition). Dithiothreitol-insensitive PAF choline phosphotransferase, lyso-PAF:acetyl-CoA acetyltransferase and PAF-acetylhydrolase activity assays were performed on the homogenates of rabbit leukocytes while the activity of lipoprotein-associated phospholipase A2 was assessed on plasma as previously described. The experiments were performed in a model 400 vs. aggregometer of Chrono-Log (Havertown, PA, USA) coupled to a Chrono-Log recorder at 37 °C with constant stirring at 1200 rpm. The separation of platelets was performed with centrifugations in a 3L-R Heraeus Labofuge (Hvanau, Germany), a 400R Heraeus Labofuge and an RC-5B Sorvall (Newtown, CT, USA) refrigerated super speed centrifuge. Bovine serum albumin (BSA), PAF and analytical solvents for the biological assays were purchased from Sigma. […] The measurements were performed in duplicates for each sample concentration in three different WRP preparations, in order to ensure reproducibility. All experiments were also followed by appropriate control tests of the solvent used (saline solution of BSA, DMSO aliquots in a saline solution of BSA-2.5 mg BSA/mL saline- or just in saline), in WRPs. In the aggregometer cuvette (250 to 500 μL) the overall amount of added DMSO, contained in the solution of the sample under study, is not higher than 2–3 μL. All results were expressed as mean ± standard deviation (SD). The t-test was employed to assess differences among the IC50 values of each metal complex against either the PAF- or thrombin-induced aggregation. Differences were statistically significant when the statistical p-value was smaller than 0.05.

[2] = test system: thrombin-induced aggregation in washed rabbit platelets (WRPs); test: Inhibition of thrombin-induced aggregation in washed rabbit platelets; assay type: cell-based; conditions: washed rabbit platelets, mean ± SD; for IC50: read-out: IC50 (μM) towards Thrombin in WRPs
Description: The biological experiments of PAF-induced platelet aggregation as well as the evaluation of the inhibitory effect of its synthetic compounds were performed according to thoroughly described protocols. The inhibitory effect of the starting materials (pqx = 2-(2′-pyridyl)quinoxaline, CrCl3 × 3H2O, MnCl2 × 4H2O, FeCl2 × 4H2O, CoCl2 × 6H2O, NiCl2 × 6H2O, CuCl2 × 2H2O, ZnCl2) and of the coordination compounds 1–7, towards PAF and thrombin related biological activities (aggregation experiments) in washed rabbit platelets (WRPs) was carried out according to previously described protocols. Briefly, in order to obtain the washed rabbit platelets (WRPs), platelet-rich plasma was washed on Ficoll–Paque cushions and adjusted to […] platelets/mL of Tyrode’s buffer, pH 7.2. The dilution of PAF was prepared using pyrogen-free 0.15 M NaCl containing 2.5 mg/mL of crystallized bovine serum albumin, required for dispersion of PAF. The compounds under investigation were firstly dissolved in the appropriate solvent that is: DMSO for pqx (0.010 M), H2O for CrCl3 × 3H2O (0.016 M), H2O for MnCl2 × 4H2O (0.004 M), DMSO-EtOH (4/1, v/v)) for FeCl2 × 4H2O (0.014 M), H2O for CoCl2 × 6H2O (0.010 M), H2O for NiCl2 × 6H2O (0.010 M), H2O for CuCl2 × 2H2O (0.008 M), H2O for ZnCl2 (0.013 M), DMSO for 1 (0.017 M), DMSO for 2 (0.010 M0, DMSO for 3 (0.004 M), DMSO for 4 (0.002 M), DMSO for 5 (0.003 M), DMSO-EtOH-H2O (25/1/1, v/v)) for 6 (0.006 M), DMSO for 7 (0.002 M) and aliquots of these solutions were then added in solutions (2.5 mg BSA/mL) of saline.
The experiment on the inhibitory effect of each compound of interest against the washed rabbit platelets (WRPs) aggregation was carried out as per the already described method. The platelets were from male New Zealand white rabbits (about 20), individually housed in stainless steel cages in an air-conditioned room (19 ± 1 °C, 55 ± 5% humidity on a 12/12 h artificial light/dark cycle). Blood samples were drawn from the main ear artery. Microliters of PAF in a final concentration of about 10^–10 M were added to the cuvette of the aggregometer, and the height of the platelet aggregation was monitored. The platelet aggregation induced by PAF, or thrombin was measured before (considered as 0% inhibition) and after the addition of various concentrations of the examined sample, creating a linear curve of percentage inhibition (ranging from 0 to 100%) versus different concentrations of the sample. From this curve, the concentration of the sample that inhibited 50% PAF-induced aggregation was calculated, and this value was defined as IC50 (Inhibitory concentration for 50% Inhibition). Dithiothreitol-insensitive PAF choline phosphotransferase, lyso-PAF:acetyl-CoA acetyltransferase and PAF-acetylhydrolase activity assays were performed on the homogenates of rabbit leukocytes while the activity of lipoprotein-associated phospholipase A2 was assessed on plasma as previously described. The experiments were performed in a model 400 vs. aggregometer of Chrono-Log (Havertown, PA, USA) coupled to a Chrono-Log recorder at 37 °C with constant stirring at 1200 rpm. The separation of platelets was performed with centrifugations in a 3L-R Heraeus Labofuge (Hvanau, Germany), a 400R Heraeus Labofuge and an RC-5B Sorvall (Newtown, CT, USA) refrigerated super speed centrifuge. Bovine serum albumin (BSA), PAF and analytical solvents for the biological assays were purchased from Sigma. Standard active thrombin was purchased from Sigma, St. Lewis, MO, USA. The measurements were performed in duplicates for each sample concentration in three different WRP preparations, in order to ensure reproducibility. All experiments were also followed by appropriate control tests of the solvent used (saline solution of BSA, DMSO aliquots in a saline solution of BSA-2.5 mg BSA/mL saline- or just in saline), in WRPs. […]

[3] = test system: PAF-induced aggregation in washed rabbit platelets (WRPs); conditions: cited from earlier work
[4] = test system: HEK293T (human embryonic kidney cells); test: MTT cell viability assay, HEK293T; assay type: cell-based; conditions: 48 h exposure, mean ± SD
Description: (§1) In this report, cell viability tests were conducted in HEK293T and HeLa cancer cells by means of the colorimetric 3-(4,5-dimethylthiazol-2-yl)-2,5-diphenyl tetrazolium bromide (MTT) assay after exposure for 48 h. A HeLa cancer cell line was selected since it is widely used in cytotoxicity studies. For all complexes, a 10 mM stock solution in DMSO (H2O for cisplatin) was prepared and diluted appropriately to reach the final concentration reported in the Materials and Methods. The non-cancerous HEK293T cell line was used for comparison. The IC50 values of the first-row metal complexes, the pqx ligand and cisplatin, presented herein were calculated using a dose-response model, which was obtained from sigmoidal fitting of dose-response curves.
(§2) The HEK293T cell line (immortalized human embryonic kidney cells) was obtained from the Biomedical Research Foundation Academy of Athens (BRFAA), Athens, Greece and the HeLa cell line (cervical cancer cells) was obtained from the National Centre For Scientific Research Demokritos (NCSR Demokritos), Athens, Greece.
(§3) Pqx metal complexes were diluted in stock solutions of 10 mM in dimethyl sulfoxide (DMSO). A similar concentration of cisplatin dissolved in H2O was used. HEK293T and HeLa cells were cultured in Dulbecco’s modified Eagle’s medium (DMEM) with high glucose (Biosera, Nuaille, France) supplemented with 10% fetal bovine serum at 37 °C and 5% CO2. Cells were seeded in sterile tissue culture 96-well plates (SPL Life Science, Pochon, Republic of Korea) at a density of 3000 cells per well. After 24 h, the medium was removed and replaced with fresh media containing various concentrations (0.01 μΜ, 0.1 μΜ, 1 μΜ, 10 μΜ, 25 μΜ, 40 μΜ, 55 μΜ, 70 μΜ, 85 μΜ and 100 μΜ) of the compounds to be tested and was further incubated for 48 h at 37 °C. Dimethyl sulfoxide (DMSO) was used as a vehicle at ≤1%. To measure cytotoxicity, a culture medium containing the compounds (or DMSO) was removed, and 100 μL of 0.5 mg/mL MTT reagent (Applichem, Darmstadt, Germany) diluted in DMEM was added to the cells for 3 h at 37 °C. After 3 h incubation in identical conditions, MTT was removed and 200 μL of DMSO was added. Absorbance values of formazan were measured at 540 nm using a BioTek Synergy H1 microplate reader (Agilent, Santa Clara, CA, USA). All compounds were tested in triplicate. The results were statistically analyzed using the nonlinear regression by GraphPad PRISM (Version 9).

[5] = test system: HeLa cells (cervical cancer cells); test: MTT cell viability assay, HeLa; assay type: cell-based, human; conditions: 48 h exposure, mean ± SD
Description: as §1, §2, §3

[6] = test system: thrombin-induced aggregation in washed rabbit platelets (WRPs); conditions: cited from earlier work
[7] = known PAF antagonists quoted for comparison, read-out: IC50 against the PAF-induced aggregation in WRPs
[8] = earlier pqx complexes, ref [17],[25], read-out: IC50 against the PAF-induced aggregation

## [Cl][Fe][Cl] [FeCl2 × 4H2O, reference compound]
[1]
  IC50: 261 ± 37 µM
[2]
  IC50: 13.8 ± 1.93 µM

## O.O.O.O.O.O.[Cl-].[Cl-].[Co+2] [CoCl2 × 6H2O]
[3]; washed rabbit platelets, ref [60]
  IC50 (μM) towards PAF in WRPs: negligible effects; also recorded: no inhibition ^1
[2]
  IC50 (μM) towards Thrombin in WRPs: no inhibition

## Cc1cncc(CN2CCC(=C3c4ccc(Cl)cc4CCc4cccnc43)CC2)c1 [rupatadine]
[3]; [7]
  IC50: 0.25 µM

## N.N.[Cl][Pt][Cl] [cisplatin, reference compound]
[4]
  IC50: 4.44 ± 1.29 µM
[5]
  IC50: 12.8 ± 1.48 µM
[3]; ref [25], read-out: IC50 against PAF
  IC50: 0.55 µM

## cis-[Ru(bpy)2(dcbpyH2)](PF6)2
[6]; Ru(II) thrombin inhibitors, ref [30], read-out: IC50 against thrombin
  IC50: 4.5 µM

## [Cl][Mn][Cl] [MnCl2 × 4H2O, reference compound]
[1]
  IC50: 302 ± 30 µM
[2]
  IC50: 466 ± 47 µM

## mer-[Rh(pqx)Cl3(MeOH)]
[3]; [8]
  IC50: 0.125 µM

## CC1C(=O)OC2C(O)C34C5CC(C(C)(C)C)C36C(OC(=O)C6O)OC4(C(=O)O5)C12O (stereo not shown) [BN 52021]
[3]; [7]
  IC50: 9.7 µM

## [Ru(dcbpyH2)2 (pqx))](NO3)2
[3]; [8]
  IC50: 0.18 µM
[6]; known Ru(II)-pqx complex, ref [17]
  activity against thrombin: inactive

## [Cl-].[Cl-].[Zn+2] [ZnCl2, reference compound]
[1]
  IC50: 30 ± 3 µM
[2]
  IC50: 41.4 ± 3.7 µM

## [Cl][Cr]([Cl])[Cl] [CrCl3 × 6H2O, reference compound]
[1]
  IC50: 537 ± 59 µM
[2]
  IC50: 611 ± 67 µM

## [Rh(cod)(pqx)]Cl
[3]; [8]
  IC50: 0.015 µM

## [Cl][Ni][Cl] [NiCl2 × 6H2O, reference compound]
[1]
  IC50: 30 ± 2.7 µM
[2]
  IC50: 4.9 ± 0.44 µM

## [Cl][Cu][Cl] [CuCl2 × 2H2O, reference compound]
[1]
  IC50: 22 ± 3 µM
[2]
  IC50: 3.23 ± 0.39 µM

## C[C@@H]1C(=O)O[C@H]2C[C@@]34[C@H]5C[C@@H](C(C)(C)C)[C@]36[C@@H](OC(=O)[C@@H]6O)O[C@@]4(C(=O)O5)[C@]21O [BN 52020]
[3]; [7]
  IC50: 3.6 µM
